ChEMBL document CHEMBL1201862, “PubChem BioAssay data set” (2004)
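Values below derive from 48-hour exposures of cells grown in 96-well plates, with endpoints linearly interpolated between the two concentrations bracketing the appropriate inhibition level. GI50 marks 50% less growth.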 Calls of active or inactive are those of the source. Rule as the data show it: active = GI50 up to about 1.1 µM and inactive = higher.

What was measured:
Assay in all cases: growth of human tumour cells (NCI), 48 h
786-0 = system: 786-0
A498 = system: A498
A549 = system: A549
ACHN = system: ACHN
BT-549 = system: BT-549
CAKI-1 = system: CAKI-1
CCRF-CEM = system: CCRF-CEM
COLO 205 = system: COLO 205
DU-145 = system: DU-145
EKVX = system: EKVX
HCC 2998 = system: HCC 2998
HCT-116 = system: HCT-116
HCT-15 = system: HCT-15
HOP-62 = system: HOP-62
HOP-92 = system: HOP-92
HT-29 = system: HT-29
Hs-578T = system: Hs-578T
IGROV-1 = system: IGROV-1
K562 = system: K562
KM12 = system: KM12
LOX IMVI = system: LOX IMVI
M14 = system: M14
MCF7 = system: MCF7
MDA-MB-231 = system: MDA-MB-231
MDA-MB-435 = system: MDA-MB-435
MDA-N = system: MDA-N
MOLT-4 = system: MOLT-4
Malme-3M = system: Malme-3M
NCI-H226 = system: NCI-H226
NCI-H23 = system: NCI-H23
NCI-H460 = system: NCI-H460
NCI/ADR-RES = system: NCI/ADR-RES
OVCAR-3 = system: OVCAR-3
OVCAR-4 = system: OVCAR-4
OVCAR-5 = system: OVCAR-5
OVCAR-8 = system: OVCAR-8
PC-3 = system: PC-3
RPMI-8226 = system: RPMI-8226
RXF 393 = system: RXF 393
SF-268 = system: SF-268
SF-295 = system: SF-295
SF-539 = system: SF-539
SK-MEL-28 = system: SK-MEL-28
SK-MEL-2 = system: SK-MEL-2
SK-MEL-5 = system: SK-MEL-5
SK-OV-3 = system: SK-OV-3
SN12C = system: SN12C
SNB-19 = system: SNB-19
SNB-75 = system: SNB-75
SR = system: SR
SW-620 = system: SW-620
T47D = system: T47D
TK-10 = system: TK-10
U-251 = system: U-251
UACC-257 = system: UACC-257
UACC-62 = system: UACC-62
UO-31 = system: UO-31

With `O=C(O)C1CC(C2CCCCN2)CN2CCCCC12` (configuration not stated) the GI50 (786-0) was > 100 µM (inactive), the GI50 (A498) was > 100 µM (inactive) and the GI50 (A549) was > 100 µM (inactive). For the same molecule, the GI50 (ACHN) was > 100 µM (inactive), the GI50 (BT-549) was > 100 µM (inactive) and the GI50 (CAKI-1) was > 100 µM (inactive). For the same molecule, the GI50 (CCRF-CEM) was > 100 µM (inactive), the GI50 (COLO 205) was > 100 µM (inactive) and the GI50 (DU-145) was > 100 µM (inactive). The GI50 (EKVX) was > 100 µM (inactive), the GI50 (HCC 2998) was > 100 µM (inactive) and the GI50 (HCT-116) was > 100 µM (inactive). The GI50 (HCT-15) was > 100 µM, the GI50 (HOP-62) was > 100 µM (inactive) and the GI50 (HOP-92) was > 100 µM (inactive). For the same molecule, the GI50 (HT-29) was > 100 µM (inactive), the GI50 (Hs-578T) was > 100 µM (inactive) and the GI50 (IGROV-1) was > 100 µM (inactive). The GI50 (K562) was > 100 µM (inactive), the GI50 (KM12) was > 100 µM (inactive) and the GI50 (LOX IMVI) was > 100 µM (inactive). For the same molecule, the GI50 (M14) was > 100 µM (inactive), the GI50 (MCF7) was > 100 µM (inactive) and the GI50 (MDA-MB-231) was > 100 µM (inactive). For the same molecule, the GI50 (MDA-MB-435) was > 100 µM (inactive), the GI50 (MDA-N) was > 100 µM (inactive) and the GI50 (MOLT-4) was > 100 µM (inactive). For the same molecule, the GI50 (Malme-3M) was > 100 µM (inactive), the GI50 (NCI-H226) was > 100 µM (inactive) and the GI50 (NCI-H23) was > 100 µM (inactive). The GI50 (NCI-H460) was > 100 µM (inactive), the GI50 (NCI/ADR-RES) was > 100 µM (inactive) and the GI50 (OVCAR-3) was > 100 µM (inactive). For the same molecule, the GI50 (OVCAR-4) was > 100 µM (inactive), the GI50 (OVCAR-5) was > 100 µM (inactive) and the GI50 (OVCAR-8) was > 100 µM (inactive). For the same molecule, the GI50 (PC-3) was > 100 µM (inactive), the GI50 (RPMI-8226) was > 100 µM (inactive) and the GI50 (RXF 393) was > 100 µM (inactive). The GI50 (SF-268) was > 100 µM (inactive), the GI50 (SF-295) was > 100 µM (inactive) and the GI50 (SF-539) was 57.5 µM (inactive). The GI50 (SK-MEL-28) was > 100 µM (inactive), the GI50 (SK-MEL-2) was > 100 µM (inactive) and the GI50 (SK-MEL-5) was > 100 µM (inactive). The GI50 (SK-OV-3) was > 100 µM (inactive), the GI50 (SN12C) was > 100 µM (inactive) and the GI50 (SNB-19) was > 100 µM (inactive). For the same molecule, the GI50 (SNB-75) was > 100 µM (inactive), the GI50 (SR) was > 100 µM (inactive) and the GI50 (SW-620) was > 100 µM (inactive). The GI50 (T47D) was > 100 µM (inactive), the GI50 (TK-10) was > 100 µM (inactive) and the GI50 (U-251) was > 100 µM (inactive). The GI50 (UACC-257) was > 100 µM (inactive), the GI50 (UACC-62) was > 100 µM (inactive) and the GI50 (UO-31) was > 100 µM (inactive).
